Source: patent publication US8680012B2, “4-phenyl-pyrane-3,5-diones,4-phenyl-thiopyrane-3,6-diones and cyclohexanetriones as novel herbicides” (Syngenta Crop Protection LLC, priority 2006, dated 2014)

Legend:
Assay type in all cases: in vivo
[1] = test system: Alopecurus myosuroides (ALOMY); assay: Example B pre-emergence herbicidal activity, glasshouse pot test; settings: 312 h, evaluated after 13 days, read-out: Pre-emergence activity ALOMY (100=total damage to plant; 0=no damage to plant); for pest or weed control at 1000 g/ha: rate 1000 g/ha; for pest or weed control at 250 g/ha: rate 250 g/ha
How it was run: (§1)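 Damage rated 13 days after treatment on a 0 (no damage) to 100 (total damage) scale. Spray of acetone/water (50:50) with 0.5% Tween 20 went onto soil-sown pots at day 1 (pre-emergence) or day 8 (post-emergence); glasshouse kept at 24/16 °C, 14 h light, 65% humidity.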

[2] = test system: Amaranthus retroflexus (AMARE); assay: as above; settings: 312 h, evaluated after 13 days, read-out: Pre-emergence activity AMARE (100=total damage to plant; 0=no damage to plant); for pest or weed control at 1000 g/ha: rate 1000 g/ha; for pest or weed control at 250 g/ha: rate 250 g/ha
How it was run: as §1

Avena fatua (AVEFA) [3] = assay: as above; settings: 312 h, evaluated after 13 days, read-out: Pre-emergence activity AVEFA (100=total damage to plant; 0=no damage to plant); for pest or weed control at 1000 g/ha: rate 1000 g/ha; for pest or weed control at 250 g/ha: rate 250 g/ha
How it was run: as §1

[4] = test system: Echinochloa crus-galli (ECHCG); assay: as above; settings: 312 h, evaluated after 13 days, read-out: Pre-emergence activity ECHCG (100=total damage to plant; 0=no damage to plant); for pest or weed control at 1000 g/ha: rate 1000 g/ha; for pest or weed control at 250 g/ha: rate 250 g/ha
How it was run: as §1

Setaria faberi (SETFA) [5] = assay: as above; settings: 312 h, evaluated after 13 days, read-out: Pre-emergence activity SETFA (100=total damage to plant; 0=no damage to plant); for pest or weed control at 1000 g/ha: rate 1000 g/ha; for pest or weed control at 250 g/ha: rate 250 g/ha
How it was run: as §1

Solanum nigrum (SOLNI) [6] = assay: as above; settings: 312 h, evaluated after 13 days, read-out: Pre-emergence activity SOLNI (100=total damage to plant; 0=no damage to plant); for pest or weed control at 1000 g/ha: rate 1000 g/ha
How it was run: as §1

[7] = test system: Alopecurus myosuroides (ALOMY); assay: Example B post-emergence herbicidal activity, glasshouse pot test; settings: 312 h, evaluated after 13 days, read-out: Post-emergence activity ALOMY (100=total damage to plant; 0=no damage to plant); for pest or weed control at 1000 g/ha: rate 1000 g/ha; for pest or weed control at 250 g/ha: rate 250 g/ha
How it was run: as §1

[8] = test system: Amaranthus retroflexus (AMARE); assay: as above; settings: 312 h, evaluated after 13 days, read-out: Post-emergence activity AMARE (100=total damage to plant; 0=no damage to plant); for pest or weed control at 1000 g/ha: rate 1000 g/ha; for pest or weed control at 250 g/ha: rate 250 g/ha
How it was run: as §1

Avena fatua (AVEFA) [9] = assay: as above; settings: 312 h, evaluated after 13 days, read-out: Post-emergence activity AVEFA (100=total damage to plant; 0=no damage to plant); for pest or weed control at 1000 g/ha: rate 1000 g/ha; for pest or weed control at 250 g/ha: rate 250 g/ha
How it was run: as §1

[10] = test system: Echinochloa crus-galli (ECHCG); assay: as above; settings: 312 h, evaluated after 13 days, read-out: Post-emergence activity ECHCG (100=total damage to plant; 0=no damage to plant); for pest or weed control at 1000 g/ha: rate 1000 g/ha; for pest or weed control at 250 g/ha: rate 250 g/ha
How it was run: as §1

Setaria faberi (SETFA) [11] = assay: as above; settings: 312 h, evaluated after 13 days, read-out: Post-emergence activity SETFA (100=total damage to plant; 0=no damage to plant); for pest or weed control at 1000 g/ha: rate 1000 g/ha; for pest or weed control at 250 g/ha: rate 250 g/ha
How it was run: as §1

Solanum nigrum (SOLNI) [12] = assay: as above; settings: 312 h, evaluated after 13 days, read-out: Post-emergence activity SOLNI (100=total damage to plant; 0=no damage to plant); for pest or weed control at 1000 g/ha: rate 1000 g/ha
How it was run: as §1

SMILES	pest or weed control at 1000 g/ha [1] [%]	pest or weed control at 1000 g/ha [2] [%]	pest or weed control at 1000 g/ha (Avena fatua (AVEFA) [3]) [%]	pest or weed control at 1000 g/ha [4] [%]	pest or weed control at 1000 g/ha (Setaria faberi (SETFA) [5]) [%]	pest or weed control at 1000 g/ha (Solanum nigrum (SOLNI) [6]) [%]	pest or weed control at 1000 g/ha [7] [%]	pest or weed control at 1000 g/ha [8] [%]	pest or weed control at 1000 g/ha (Avena fatua (AVEFA) [9]) [%]	pest or weed control at 1000 g/ha [10] [%]	pest or weed control at 250 g/ha [1] [%]	pest or weed control at 250 g/ha [2] [%]	pest or weed control at 250 g/ha (Avena fatua (AVEFA) [3]) [%]	pest or weed control at 250 g/ha [4] [%]	pest or weed control at 250 g/ha (Setaria faberi (SETFA) [5]) [%]	pest or weed control at 250 g/ha [7] [%]	pest or weed control at 250 g/ha [8] [%]	pest or weed control at 250 g/ha (Avena fatua (AVEFA) [9]) [%]	pest or weed control at 250 g/ha [10] [%]	pest or weed control at 250 g/ha (Setaria faberi (SETFA) [11]) [%]	other results
Cc1ccc(-c2cccc(C#N)c2)cc1C1=C(O)C(C)(C)OC(C)(C)C1=O [Compound A-22]	40	30	20	90	40	60	30	0	0	80	–	–	–	–	–	–	–	–	–	–	pest or weed control at 1000 g/ha (Setaria faberi (SETFA) [11]): 20%; pest or weed control at 1000 g/ha (Solanum nigrum (SOLNI) [12]): 90%
CCc1ccc(-c2ccc(Cl)cc2)cc1C1=C(OC(=O)C(C)OC)C(C)(C)OC(C)(C)C1=O [Compound D-19]	70	0	20	100	100	0	90	0	80	100	–	–	–	–	–	–	–	–	–	–	pest or weed control at 1000 g/ha (Setaria faberi (SETFA) [11]): 100%; pest or weed control at 1000 g/ha (Solanum nigrum (SOLNI) [12]): 0%
Cc1ccc(-c2cc(F)c(F)c(F)c2)cc1C1=C(O)C(C)(C)OC(C)(C)C1=O [Compound A-31]	50	0	0	100	100	0	100	0	90	100	–	–	–	–	–	–	–	–	–	–	pest or weed control at 1000 g/ha (Setaria faberi (SETFA) [11]): 100%; pest or weed control at 1000 g/ha (Solanum nigrum (SOLNI) [12]): 60%
CCc1ccc(-c2ccc(Cl)cc2F)cc1C1=C(O)C(C)(C)C(=O)C(C)(C)C1=O [Compound B-31]	–	–	–	–	–	–	–	–	–	–	0	0	20	50	50	10	0	0	90	90	pest or weed control at 250 g/ha (Solanum nigrum (SOLNI) [6]; rate 250 g/ha): 0%; pest or weed control at 250 g/ha (Solanum nigrum (SOLNI) [12]; rate 250 g/ha): 0%
CCc1ccc(-c2ccc(Cl)cc2)cc1C1=C(O)C(C)(C)OC(C)C1=O (single isomer, unassigned) [Compound A-26]	80	0	80	100	100	0	100	100	100	100	–	–	–	–	–	–	–	–	–	–	pest or weed control at 1000 g/ha (Setaria faberi (SETFA) [11]): 100%; pest or weed control at 1000 g/ha (Solanum nigrum (SOLNI) [12]): 50%
Cc1ccc(-c2ccc(Cl)cc2Cl)cc1C1=C(O)C(C)(C)[S+]([O-])C(C)(C)C1=O (single isomer, unassigned) [Compound C-7]	–	–	–	–	–	–	–	–	–	–	0	0	0	0	0	20	0	0	60	30	–
CCc1ccc(-c2ccc(Cl)c(Cl)c2)cc1C1=C(O)[C@@]2(C)CC[C@H](O2)C1=O (single isomer, unassigned) [Compound A-123]	–	–	–	–	–	–	–	–	–	–	50	0	80	70	100	90	0	70	100	100	–
CCc1ccc(-c2ccc(Cl)cc2C(F)(F)F)cc1C1=C(O)C(C)(C)OC(C)(C)C1=O [Compound A-72]	–	–	–	–	–	–	–	–	–	–	0	0	0	40	0	20	60	0	80	80	–
CCc1ccc(-n2cnc(Cl)c2Cl)cc1C1=C(OC(=O)OC)C(C)(C)OC(C)(C)C1=O [Compound D-32]	–	–	–	–	–	–	–	–	–	–	20	0	80	60	80	50	0	70	90	80	–
Cc1ccc(-c2ccc(Cl)cc2Cl)cc1C1=C(O)C(C)(C)S(=O)(=O)C(C)(C)C1=O [Compound C-8]	–	–	–	–	–	–	–	–	–	–	0	0	0	0	0	20	0	0	60	40	–
CCc1ccc(-c2ccc(Cl)c(C(F)(F)F)c2)cc1C1=C(O)C(C)(C)OC(C)(C)C1=O [Compound A-67]	–	–	–	–	–	–	–	–	–	–	40	0	0	60	90	80	100	80	100	30	–
CCc1ccc(-c2ccc(Cl)cc2)cc1C1=C(O)[C@@]2(CC)C=C[C@H](O2)C1=O [Compound A-63]	–	–	–	–	–	–	–	–	–	–	0	0	0	0	30	90	0	60	100	100	–
